# Results: article doi:10.1101/2023.10.20.563248v1 (biorxiv, 2023)
# How the values were obtained:
# Conditions in all cases: 1 µM; inhibitor
# EPHA8 = EPHA8 (Homo sapiens, UniProt P29322)
# NDR1 = NDR1 (Homo sapiens, UniProt Q15208)
# CDK1/CycB1 = CDK1/CycB1 (Homo sapiens, UniProt P06493)
# SRC = SRC (Homo sapiens, UniProt P12931)
# HIPK3 = HIPK3 (Homo sapiens, UniProt Q9H422)
# MEK1 = MEK1 (Homo sapiens, UniProt Q02750)
# IGF1R = IGF1R (Homo sapiens, UniProt P08069)
# MARK3 = MARK3 (Homo sapiens, UniProt P27448)
# BRK = BRK (Homo sapiens, UniProt Q13882)
# TGFBR1 = TGFBR1 (Homo sapiens, UniProt P36897)
# EPHB4 = EPHB4 (Homo sapiens, UniProt P54760)
# LIMK2 = LIMK2 (Homo sapiens, UniProt P53671)
# CDC42BPB = CDC42BPB (Homo sapiens, UniProt Q9Y5S2)
# MELK = MELK (Homo sapiens, UniProt Q14680)
# PBK = PBK (Homo sapiens, UniProt Q96KB5)
# CK1d = CK1d (Homo sapiens, UniProt P48730)
# CDK2/CycA2 = CDK2/CycA2 (Homo sapiens, UniProt P24941)
# PKCe = PKCe (Homo sapiens, UniProt Q02156)
# KIT = KIT (Homo sapiens, UniProt P10721)
# EPHB2 = EPHB2 (Homo sapiens, UniProt P29323)
# GRK5 = GRK5 (Homo sapiens, UniProt P34947)
# MEK2 = MEK2 (Homo sapiens, UniProt P36507)
# CAMK1D = CAMK1D (Homo sapiens, UniProt Q8IU85)
# IRAK4 = IRAK4 (Homo sapiens, UniProt Q9NWZ3)
# CAMKK2 = CAMKK2 (Homo sapiens, UniProt Q96RR4)
# EPHA2 = EPHA2 (Homo sapiens, UniProt P29317)
# TTBK2 = TTBK2 (Homo sapiens, UniProt Q6IQ55)
# PKCz = PKCz (Homo sapiens, UniProt Q05513)
# RPS6KA1 = RPS6KA1 (Homo sapiens, UniProt Q15418)
# DMPK = DMPK (Homo sapiens, UniProt Q09013)
# HCK = HCK (Homo sapiens, UniProt P08631)
# Sequence of EPHB2 (P29323 whole entry): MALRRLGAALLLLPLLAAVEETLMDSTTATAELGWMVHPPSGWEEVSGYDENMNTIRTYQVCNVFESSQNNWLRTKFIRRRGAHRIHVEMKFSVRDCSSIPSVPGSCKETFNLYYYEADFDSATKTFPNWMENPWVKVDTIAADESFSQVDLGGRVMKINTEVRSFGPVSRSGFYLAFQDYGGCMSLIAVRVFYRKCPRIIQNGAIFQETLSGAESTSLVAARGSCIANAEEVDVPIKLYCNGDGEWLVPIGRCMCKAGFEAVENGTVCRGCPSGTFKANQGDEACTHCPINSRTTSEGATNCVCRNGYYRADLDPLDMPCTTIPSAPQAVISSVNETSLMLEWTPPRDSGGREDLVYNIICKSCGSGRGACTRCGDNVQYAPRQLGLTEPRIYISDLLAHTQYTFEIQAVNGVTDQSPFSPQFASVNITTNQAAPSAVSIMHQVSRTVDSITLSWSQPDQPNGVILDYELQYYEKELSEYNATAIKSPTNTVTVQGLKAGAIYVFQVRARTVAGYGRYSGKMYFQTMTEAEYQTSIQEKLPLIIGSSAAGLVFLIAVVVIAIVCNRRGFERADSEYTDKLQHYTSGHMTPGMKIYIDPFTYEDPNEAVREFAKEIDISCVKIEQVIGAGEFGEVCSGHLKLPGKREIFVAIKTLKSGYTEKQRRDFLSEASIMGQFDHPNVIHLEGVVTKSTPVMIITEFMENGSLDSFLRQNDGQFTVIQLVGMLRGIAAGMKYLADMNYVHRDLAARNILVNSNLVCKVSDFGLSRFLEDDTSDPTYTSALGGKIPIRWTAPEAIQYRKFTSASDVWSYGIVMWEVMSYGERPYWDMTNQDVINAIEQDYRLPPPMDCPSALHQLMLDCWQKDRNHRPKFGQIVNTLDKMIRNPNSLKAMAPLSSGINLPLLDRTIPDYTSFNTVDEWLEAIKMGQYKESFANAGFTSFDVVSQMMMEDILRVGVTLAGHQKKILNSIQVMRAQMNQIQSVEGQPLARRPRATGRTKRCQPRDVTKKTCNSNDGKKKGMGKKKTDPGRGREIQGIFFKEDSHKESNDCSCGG
# Sequence of MEK1 (Q02750 whole entry): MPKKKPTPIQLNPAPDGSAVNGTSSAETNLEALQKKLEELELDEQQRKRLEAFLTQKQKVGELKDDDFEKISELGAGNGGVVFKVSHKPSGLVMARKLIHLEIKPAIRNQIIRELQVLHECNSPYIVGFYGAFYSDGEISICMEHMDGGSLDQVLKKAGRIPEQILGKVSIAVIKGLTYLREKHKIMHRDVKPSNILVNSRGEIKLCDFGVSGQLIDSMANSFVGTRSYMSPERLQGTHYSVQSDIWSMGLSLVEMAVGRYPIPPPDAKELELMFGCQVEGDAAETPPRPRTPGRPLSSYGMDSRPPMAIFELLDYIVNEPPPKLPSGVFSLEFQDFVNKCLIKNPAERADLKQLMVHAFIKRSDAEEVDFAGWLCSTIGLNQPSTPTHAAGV
# Sequence of MEK2 (P36507 whole entry): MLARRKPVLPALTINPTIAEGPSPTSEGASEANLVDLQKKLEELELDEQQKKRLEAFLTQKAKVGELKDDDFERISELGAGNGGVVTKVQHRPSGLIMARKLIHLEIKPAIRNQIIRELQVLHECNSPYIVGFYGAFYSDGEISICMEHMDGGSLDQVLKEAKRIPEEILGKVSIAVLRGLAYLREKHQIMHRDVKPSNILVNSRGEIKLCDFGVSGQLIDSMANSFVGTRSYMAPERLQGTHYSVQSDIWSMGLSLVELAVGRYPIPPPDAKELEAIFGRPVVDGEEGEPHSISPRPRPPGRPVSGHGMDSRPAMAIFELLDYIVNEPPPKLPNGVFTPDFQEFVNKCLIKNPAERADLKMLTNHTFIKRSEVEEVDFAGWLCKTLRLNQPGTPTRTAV
# Sequence of MELK (Q14680 whole entry): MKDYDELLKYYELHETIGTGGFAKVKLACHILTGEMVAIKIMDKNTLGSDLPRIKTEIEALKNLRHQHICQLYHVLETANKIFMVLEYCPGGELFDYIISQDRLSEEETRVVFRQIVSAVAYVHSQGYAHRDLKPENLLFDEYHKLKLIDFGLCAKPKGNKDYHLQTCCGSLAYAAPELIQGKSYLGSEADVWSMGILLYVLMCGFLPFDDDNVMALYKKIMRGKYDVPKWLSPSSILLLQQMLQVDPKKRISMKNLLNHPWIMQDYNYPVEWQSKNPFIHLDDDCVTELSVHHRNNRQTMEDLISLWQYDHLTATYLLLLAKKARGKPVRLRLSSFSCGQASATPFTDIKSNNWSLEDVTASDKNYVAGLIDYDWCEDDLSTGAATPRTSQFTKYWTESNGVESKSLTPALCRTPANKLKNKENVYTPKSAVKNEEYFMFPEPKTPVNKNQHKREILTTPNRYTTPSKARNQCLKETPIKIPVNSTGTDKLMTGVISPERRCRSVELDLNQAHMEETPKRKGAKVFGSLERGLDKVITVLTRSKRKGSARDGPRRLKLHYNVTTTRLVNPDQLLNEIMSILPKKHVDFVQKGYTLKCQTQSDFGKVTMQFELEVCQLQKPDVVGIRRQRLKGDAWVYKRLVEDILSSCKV
# Sequence of IGF1R (P08069 whole entry): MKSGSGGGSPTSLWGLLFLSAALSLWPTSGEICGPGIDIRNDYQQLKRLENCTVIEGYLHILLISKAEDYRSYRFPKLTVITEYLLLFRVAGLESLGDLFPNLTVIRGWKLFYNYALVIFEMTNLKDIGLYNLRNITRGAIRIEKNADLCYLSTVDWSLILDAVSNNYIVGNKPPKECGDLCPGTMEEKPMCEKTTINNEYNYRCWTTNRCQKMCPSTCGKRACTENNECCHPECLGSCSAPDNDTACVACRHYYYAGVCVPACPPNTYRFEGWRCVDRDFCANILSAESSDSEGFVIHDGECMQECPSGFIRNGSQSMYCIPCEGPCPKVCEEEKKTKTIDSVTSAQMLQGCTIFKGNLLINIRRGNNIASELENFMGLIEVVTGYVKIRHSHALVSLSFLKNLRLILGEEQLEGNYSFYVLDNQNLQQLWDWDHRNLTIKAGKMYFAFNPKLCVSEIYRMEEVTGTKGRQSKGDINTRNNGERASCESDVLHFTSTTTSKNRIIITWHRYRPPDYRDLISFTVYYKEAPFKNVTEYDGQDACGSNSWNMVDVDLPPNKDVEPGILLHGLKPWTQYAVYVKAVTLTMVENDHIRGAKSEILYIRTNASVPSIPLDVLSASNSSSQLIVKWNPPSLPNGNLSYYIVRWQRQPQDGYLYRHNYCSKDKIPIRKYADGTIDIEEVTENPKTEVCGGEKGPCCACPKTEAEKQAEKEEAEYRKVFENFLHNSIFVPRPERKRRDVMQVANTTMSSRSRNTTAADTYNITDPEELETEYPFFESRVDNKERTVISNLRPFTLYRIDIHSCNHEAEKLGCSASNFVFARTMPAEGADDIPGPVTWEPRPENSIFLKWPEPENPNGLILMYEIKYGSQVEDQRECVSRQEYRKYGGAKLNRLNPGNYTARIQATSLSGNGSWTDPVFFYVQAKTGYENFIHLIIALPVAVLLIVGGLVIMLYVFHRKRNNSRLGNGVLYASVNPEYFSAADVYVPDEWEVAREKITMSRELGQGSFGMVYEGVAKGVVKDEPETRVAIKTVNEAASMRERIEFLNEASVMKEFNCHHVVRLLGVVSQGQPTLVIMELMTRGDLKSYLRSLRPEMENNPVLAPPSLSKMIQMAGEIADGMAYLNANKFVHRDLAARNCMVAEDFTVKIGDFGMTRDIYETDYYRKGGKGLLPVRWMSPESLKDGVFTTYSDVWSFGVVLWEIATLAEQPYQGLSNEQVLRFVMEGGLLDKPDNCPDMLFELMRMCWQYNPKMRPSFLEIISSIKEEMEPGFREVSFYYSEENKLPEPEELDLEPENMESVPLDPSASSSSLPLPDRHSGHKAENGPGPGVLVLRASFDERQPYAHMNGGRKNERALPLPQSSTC
# Sequence of NDR1 (Q15208 whole entry): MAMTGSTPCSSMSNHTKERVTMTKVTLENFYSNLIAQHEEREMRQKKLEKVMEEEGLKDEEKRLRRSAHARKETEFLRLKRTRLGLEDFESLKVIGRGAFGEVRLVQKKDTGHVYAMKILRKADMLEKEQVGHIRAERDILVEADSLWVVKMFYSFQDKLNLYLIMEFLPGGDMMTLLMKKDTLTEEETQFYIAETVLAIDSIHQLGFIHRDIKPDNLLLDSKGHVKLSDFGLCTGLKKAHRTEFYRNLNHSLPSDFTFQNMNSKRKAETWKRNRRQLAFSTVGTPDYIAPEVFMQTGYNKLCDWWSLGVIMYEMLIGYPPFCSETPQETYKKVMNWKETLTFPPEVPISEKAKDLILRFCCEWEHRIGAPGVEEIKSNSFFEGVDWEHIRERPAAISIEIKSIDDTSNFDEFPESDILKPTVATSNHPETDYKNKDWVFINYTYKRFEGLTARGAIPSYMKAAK
# Sequence of GRK5 (P34947 whole entry): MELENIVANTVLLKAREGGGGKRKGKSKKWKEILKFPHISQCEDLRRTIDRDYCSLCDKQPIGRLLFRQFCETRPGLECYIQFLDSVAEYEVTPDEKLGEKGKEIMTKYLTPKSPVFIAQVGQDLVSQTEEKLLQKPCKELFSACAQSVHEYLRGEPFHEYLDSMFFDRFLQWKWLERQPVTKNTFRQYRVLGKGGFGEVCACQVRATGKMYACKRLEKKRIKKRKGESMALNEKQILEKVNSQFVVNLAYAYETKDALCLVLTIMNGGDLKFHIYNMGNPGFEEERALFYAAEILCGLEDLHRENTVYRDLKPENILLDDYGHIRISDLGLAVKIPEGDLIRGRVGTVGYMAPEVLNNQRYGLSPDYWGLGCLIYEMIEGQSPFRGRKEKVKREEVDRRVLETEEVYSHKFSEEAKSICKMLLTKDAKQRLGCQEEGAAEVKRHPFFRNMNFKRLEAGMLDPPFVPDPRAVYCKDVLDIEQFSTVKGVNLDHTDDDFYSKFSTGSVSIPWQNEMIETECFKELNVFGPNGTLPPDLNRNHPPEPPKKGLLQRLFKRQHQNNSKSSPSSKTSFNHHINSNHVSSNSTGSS
smiles,measurement,setting,value
"O=C1NCCCCCNc2nc(c3ccccc3n2)Nc2cc1[nH]n2 [21c, (Z)-3^1H-2,5,11-triaza-1(4,2)-quinazolina-3(3,5)-pyrazolacycloundecaphan-4-one]","21c Remaining activity, percent of control [%]",EPHA8,112.4%
same,"21c Remaining activity, percent of control [%]",NDR1,86.7%
same,"21c Remaining activity, percent of control [%]",CDK1/CycB1,87.2%
same,"21c Remaining activity, percent of control [%]",SRC,94.8%
same,"21c Remaining activity, percent of control [%]",HIPK3,90.8%
same,"21c Remaining activity, percent of control [%]",MEK1,118.7%
same,"21c Remaining activity, percent of control [%]",IGF1R,102.9%
same,"21c Remaining activity, percent of control [%]",MARK3,101.1%
same,"21c Remaining activity, percent of control [%]",BRK,99.3%
same,"21c Remaining activity, percent of control [%]",TGFBR1,124.6%
same,"21c Remaining activity, percent of control [%]",EPHB4,86.1%
same,"21c Remaining activity, percent of control [%]",LIMK2,38.2%
same,"21c Remaining activity, percent of control [%]",CDC42BPB,106.6%
same,"21c Remaining activity, percent of control [%]",MELK,47.0%
same,"21c Remaining activity, percent of control [%]",PBK,98.8%
same,"21c Remaining activity, percent of control [%]",CK1d,98.8%
same,"21c Remaining activity, percent of control [%]",CDK2/CycA2,106.1%
same,"21c Remaining activity, percent of control [%]",PKCe,86.5%
same,"21c Remaining activity, percent of control [%]",KIT,69.4%
same,"21c Remaining activity, percent of control [%]",EPHB2,100.1%
same,"21c Remaining activity, percent of control [%]",GRK5,103.8%
same,"21c Remaining activity, percent of control [%]",MEK2,90.2%
same,"21c Remaining activity, percent of control [%]",CAMK1D,103.0%
same,"21c Remaining activity, percent of control [%]",IRAK4,87.3%
same,"21c Remaining activity, percent of control [%]",CAMKK2,90.8%
same,"21c Remaining activity, percent of control [%]",EPHA2,82.5%
same,"21c Remaining activity, percent of control [%]",TTBK2,109.9%
same,"21c Remaining activity, percent of control [%]",PKCz,96.3%
same,"21c Remaining activity, percent of control [%]",RPS6KA1,90.5%
same,"21c Remaining activity, percent of control [%]",DMPK,94.3%
same,"21c Remaining activity, percent of control [%]",HCK,94.0%
